We go through twelve compounds from patent EP0618796B1 (priority 1991, dated 1993).

One assay deals with Rat Mesentery Mast Cells.
Assay: not given
As to conditions: ED20 = effective dose causing 20% secretion; antihistamines which cause mast cell degranulation; cited from earlier work.
On to `CN(C)CCOC(c1ccccc1)c1ccccc1` [Diphenhydramine], for which the “ED20 for Histamine Release” value is 10^-3 M.
Consider `CC(CN1c2ccccc2Sc2ccccc21)N(C)C` (stereo not shown) [Promethazine], for which the “ED20 for Histamine Release” value is listed as 10^-4 M.
Regarding `CN1CCN(C(c2ccccc2)c2ccccc2)CC1` [Cyclizine], the “ED20 for Histamine Release” value was 0.0005 M.
As for `CN(C)CCC(c1ccc(Cl)cc1)c1ccccn1` (stereo not shown) [Clorphenyramine], the “ED20 for Histamine Release” value is on record as 10^-3 M.

Tested on in another assay: not given
Assay: not given
As to conditions: intramuscular administration during severe migraine; hydroxyzine 50 mg; compared with placebo; cited from earlier work.
Turning to `Oc1ccc2c3c1O[C@H]1[C@@H](O)CC[C@@]4(O)[C@@H](C2)N(CC2CCC2)CC[C@]314` [nalbuphine], the “effectiveness in the treatment of pain associated with classic migraine” value is “no more effective than a placebo”.
On to `OCCOCCN1CCN(C(c2ccccc2)c2ccc(Cl)cc2)CC1` (stereo not shown) [Hydroxyzine], for which the “effectiveness in the treatment of pain associated with classic migraine” value was “no more effective than a placebo”.

Tested on in a further assay: not given
Assay: not given
The conditions noted are these: administered individually, without analgesic; cited from earlier work.
For the compound `CC(C)(C)c1ccc(CN2CCN(C(c3ccccc3)c3ccc(Cl)cc3)CC2)cc1` (stereo not shown) [Buclizine, buclizine], the effectiveness against migraine entry was “ineffective”.

A further assay concerns RAT MAST CELL. Kind of assay: Inhibition of rat mast cell degranulation in vitro (histamine release). The class given is cell-based, rats. The conditions noted are these: ID20 = inhibitory dose causing 20% inhibition, mast cells stimulated in vitro. From the text:
First, mast cells from rats (peritoneal cavity) or humans (chronic peritoneal dialysis fluid) are purified; otherwise, rat basophilic leukemia (RBL) cells are kept in culture. Any of these mast cells are then exposed to various concentrations of inhibitory compounds to allow binding of the inhibitor to the receptor sites before testing their efficacy with respect to inhibition of mast cell degranulation. They are then used as such or washed free of unbound drug before exposure to stimuli known to induce degranulation. Compounds which are inhibitory prevent the stimulus from causing degranulation by binding to specific receptors or inactivating a crucial step in the degranulation process.
The mast cell degranulation blocking agent is administered in a pharmaceutically effective amount. The dosage range for pharmaceutical effectiveness can be determined by reference to standard laboratory tests for inhibition of mast cell degranulation and by the dosages used for such agents in other conditions. The pharmaceutically effective dose of the mast cell degranulation blocking agent can be approximated by its ID20, which is defined as the dose necessary to cause 20% inhibition in mast cells when applied to mast cells stimulated in vitro. The ID20 of selected inhibitors of the anti-histamine category is as follows: Table 2
In the case of `CC(C)(C)c1ccc(C(O)CCCN2CCC(C(O)(c3ccccc3)c3ccccc3)CC2)cc1` (stereo not shown) [Terfenadine], the IC20 came out at 5 µM.
Compound `CN1CCC(=C2c3ccccc3CC(=O)c3sccc32)CC1` [Ketotifen] had an IC20 of 10 µM.
For the compound `CN1CCC(=C2c3ccccc3C=Cc3ccccc32)CC1` [Cyproheptadine], it took 5 µM to reach the 20% level (IC20).
Consider `CN1CCC(=C2c3ccccc3CCc3cccnc32)CC1` [Azatadine], for which the IC20 is 0.1 µM.
With `OCCOCCN1CCN(C(c2ccccc2)c2ccc(Cl)cc2)CC1` (stereo not shown) [Hydroxyzine], it took 50 µM to reach the 20% level (IC20).
The same measure, in the same setting: in the case of `O=c1[nH]c2ccccc2n1CCCN1CCN(C(c2ccccc2)c2ccccc2)CC1` [Oxatomide] it was 0.1 µM.
